Test results: publication PMC11576293, “New series of 4,6-diaryl pyrimidines: facile synthesis and antiproliferative activity as dual EGFR/VEGFR-2 inhibitors” (Frontiers in Chemistry, 2024)
Values joined by “and” are separate entries in the source; they are usually repeats but may differ in a detail not shown here. Equal entries are not always repeated.

Columns and labels:
[1] = system: four cancer cell lines (A-549, MCF-7, Panc-1, HT-29); test: Antiproliferative assay, average over four cancer cell lines; assay type: cell-based; conditions: Homo sapiens; average of the four cancer cell lines; read-out: Average IC50 (GI50)
From the text: Table 2 presents the four cancer cell lines’ median inhibitory concentration (IC50) and GI50 (average IC50) values.
The IC50 values were derived from dose-response tests. The reported data are derived from at least two independent studies, each comprising three replicates per concentration. See Supplementary Material A1 for more details.

[2] = Cell viability assay (MTT) on normal cells; assay type: cell-based; conditions: human, MCF-10A normal mammary gland epithelial cells, 4 days incubation
Description: (§1) This experiment examines the impact of the newly developed compounds 9–29 on normal cell lines to assess their safety level. The vitality of the investigated compounds was assessed using the MCF-10 A cell line, a normal human mammary gland epithelial cell line. Following 4 days of incubation on MCF-10 A cells with each examined compound at a concentration of 50 μM, the vitality of the cells was assessed using the MTT test ([Mahmoud et al., 2022]; [Mekheimer et al., 2022]).
as §1, with “The viability” for “The vitality”, “of 9–29” for “of the investigated compounds”, “2022]). Refer to Supplementary Material A1 for more details. […]” for “2022]).”
4.2. Biological evaluation
4.2.1. Cytotoxic activity using MTT Assay and evaluation of IC50
MTT assay was carried out to study the effect of compounds on mammary epithelial cells (MCF-10A). The medium in which cells were propagated contained Dulbecco's modified Eagle's medium (DMEM)/ Ham's F-12 medium (1:1) supplemented with epidermal growth factor (20 ng/mL), hydrocortisone (500 ng/mL), insulin (10 μg/mL), 2 mM glutamine and 10% foetal calf serum.
After every 2-3 days, the cells were passaged using trypsin ethylenediamine tetra acetic acid (EDTA). The cells were seeded at a density of 10^4 cells mL-1 in flat-bottomed culture plates containing 96 wells each. After 24 h, medium was removed from the plates and the compounds in (in 0.1% DMSO) were added (in 200 μL medium to yield a final concentration of 0.1% v/v) to the wells of plates. A single compound was designated with four wells followed by incubation of plates for 96h at 37°C. After incubation, medium was removed completely from the plates followed by addition of MTT (0.4 mg/mL in medium) to each well and subsequent incubation of plates for 3h. MTT (along with the medium) was removed and DMSO (150μL) was added to each well of the culture plates, followed by vertexing and subsequent measurement of absorbance (at 540 nm) using microplate reader. The data are shown as percentage inhibition of proliferation in comparison with controls containing 0.1% DMSO. […]

VEGFR-2 = VEGFR-2 (Homo sapiens, UniProt P35968); test: VEGFR-2 inhibitory assay
EGFR = biological target: T1, EGFR (Homo sapiens, UniProt P00533); test: EGFR-TK inhibitory assay; assay type: biochemical; conditions: read-out: EGFR inhibition IC50 ± SEM
T1 construct: amino acids 645–1186; His6 (N); made in house; host or cells: Sf-9 insect cells (baculovirus; pBlueBacHis2B / pFASTBacHTc)

[3] = Experimental lipophilicity by RP-TLC; assay type: physicochemical; conditions: for Experimental lipophilicity RMo: MeOH/water mobile phase; for Experimental lipophilicity Co: concentration of MeOH at RM = 0, in % (unit assumed)
From the text: The RP-TLC method was used to measure the lipophilicity parameters (RMo, b, and Co) described in the experimental section. The mobile phase consisted of different proportions of water and organic modifier (MeOH). RF and RM values were obtained for each ratio of organic modifier/water system (Supplementary Table S3), and a linear regression analysis was achieved to obtain the lipophilicity chromatographic descriptors (RMo, b, and Co, see Table 6). Relative lipophilicity (RMo) describes the partitioning of the solute between pure water and nonpolar stationary phase. In contrast, the second lipophilicity parameter (Co) represents the concentration of organic modifier in the mobile phase in which the solute is equally distributed between two phases (i.e., RM = 0, and Rf = 0.5). Also, Co is known to be widely used in QSAR analysis as it embraces both the specific hydrophobic surface area of the solute and RMo. […] Finally, the slope of the regression line (b) was used as a descriptor of the specific hydrophobic surface area of the compound. In a series of structurally related compounds, b is linearly correlated with RMo, resulting in a linear relationship that is the basic feature of the chromatographic determination of lipophilicity. […] Moreover, substituents affected tested compounds’ measured lipophilicity parameter (RMo) values. Higher RMo values were found with lipophilic derivatives containing the benzyl group (14, 22, and 28), while lower RMo values were found with derivatives containing alkyl or allyl groups (19, 26, and 27). An interesting contradiction was found with experimental lipophilicity value of 28 and its congener 14, where compound 28 was found more lipophilic than its congener 14 even though it contains two methoxy groups and according to ChemDraw® and MolSoft® programs, derivative 14 should be more lipophilic while the MOE® program expects values matching our findings. […] Also, S-allyl derivatives were nearly equipotent to S-alkyl congeners as antiproliferative agents but quite different in terms of lipophilicity.

[4] = system: MCF-7 Breast Adenocarcinoma cell line; test: Wound healing assay (supplement, Table S3); assay type: cell-based; conditions: for Migration rate: Rm=Wi−Wf / t
Description: 4.3. Wound Healing Assay of MCF-7 Breast Adenocarcinoma
MCF-7 Breast Adenocarcinoma cell line was obtained from Nawah Scientific Inc., (Mokatam, Cairo, Egypt). Cells were maintained in DMEM media supplemented with […] of streptomycin, 100 units/mL of penicillin and 10% of heat-inactivated fetal bovine serum in humidified, 5% (v/v) CO2 atmosphere at 37 °C.
4.3.2. Wound healing assay
Cells were plated at a density of 2x10^5/well onto a coated 12-well plate for scratch wound assay and cultured overnight in 5% FBS-DMEM at 37 °C and 5% CO2. On the next day, horizontal scratches were introduced into the confluent monolayer; the plate was washed thoroughly with PBS, control wells were replenished with fresh medium while drug wells were treated with fresh media containing drug 26 and 27. Images were taken using an inverted microscope at the indicated time intervals. The plate was incubated at 37 °C and 5% CO2 in-between time points. The acquired […]
4.4. Wound Healing Assay Calculations
Wound width can be calculated as the average distance between the edges of the scratches; the wound width decreases as cell migration is induced. The results of compounds 26 and 27 were […]
Migration rate is calculated by dividing the time spent in migration according to the following

T1 sequence (P00533 669-1210): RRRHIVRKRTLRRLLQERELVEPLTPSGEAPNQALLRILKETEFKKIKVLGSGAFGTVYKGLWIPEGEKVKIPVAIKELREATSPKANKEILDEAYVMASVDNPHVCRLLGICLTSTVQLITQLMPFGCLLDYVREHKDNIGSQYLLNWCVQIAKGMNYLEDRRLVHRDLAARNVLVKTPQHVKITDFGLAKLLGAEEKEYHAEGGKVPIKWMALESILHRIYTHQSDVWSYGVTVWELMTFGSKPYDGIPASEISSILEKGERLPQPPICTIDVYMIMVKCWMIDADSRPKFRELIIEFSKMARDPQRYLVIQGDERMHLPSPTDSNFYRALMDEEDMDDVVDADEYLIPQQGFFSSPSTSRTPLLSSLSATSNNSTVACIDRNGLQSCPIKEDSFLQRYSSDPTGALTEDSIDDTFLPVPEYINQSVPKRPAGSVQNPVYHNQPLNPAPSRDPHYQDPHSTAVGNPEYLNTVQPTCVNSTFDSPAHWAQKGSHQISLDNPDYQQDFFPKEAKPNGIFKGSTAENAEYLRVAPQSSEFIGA
Sequence of VEGFR-2 (P35968 20-1356): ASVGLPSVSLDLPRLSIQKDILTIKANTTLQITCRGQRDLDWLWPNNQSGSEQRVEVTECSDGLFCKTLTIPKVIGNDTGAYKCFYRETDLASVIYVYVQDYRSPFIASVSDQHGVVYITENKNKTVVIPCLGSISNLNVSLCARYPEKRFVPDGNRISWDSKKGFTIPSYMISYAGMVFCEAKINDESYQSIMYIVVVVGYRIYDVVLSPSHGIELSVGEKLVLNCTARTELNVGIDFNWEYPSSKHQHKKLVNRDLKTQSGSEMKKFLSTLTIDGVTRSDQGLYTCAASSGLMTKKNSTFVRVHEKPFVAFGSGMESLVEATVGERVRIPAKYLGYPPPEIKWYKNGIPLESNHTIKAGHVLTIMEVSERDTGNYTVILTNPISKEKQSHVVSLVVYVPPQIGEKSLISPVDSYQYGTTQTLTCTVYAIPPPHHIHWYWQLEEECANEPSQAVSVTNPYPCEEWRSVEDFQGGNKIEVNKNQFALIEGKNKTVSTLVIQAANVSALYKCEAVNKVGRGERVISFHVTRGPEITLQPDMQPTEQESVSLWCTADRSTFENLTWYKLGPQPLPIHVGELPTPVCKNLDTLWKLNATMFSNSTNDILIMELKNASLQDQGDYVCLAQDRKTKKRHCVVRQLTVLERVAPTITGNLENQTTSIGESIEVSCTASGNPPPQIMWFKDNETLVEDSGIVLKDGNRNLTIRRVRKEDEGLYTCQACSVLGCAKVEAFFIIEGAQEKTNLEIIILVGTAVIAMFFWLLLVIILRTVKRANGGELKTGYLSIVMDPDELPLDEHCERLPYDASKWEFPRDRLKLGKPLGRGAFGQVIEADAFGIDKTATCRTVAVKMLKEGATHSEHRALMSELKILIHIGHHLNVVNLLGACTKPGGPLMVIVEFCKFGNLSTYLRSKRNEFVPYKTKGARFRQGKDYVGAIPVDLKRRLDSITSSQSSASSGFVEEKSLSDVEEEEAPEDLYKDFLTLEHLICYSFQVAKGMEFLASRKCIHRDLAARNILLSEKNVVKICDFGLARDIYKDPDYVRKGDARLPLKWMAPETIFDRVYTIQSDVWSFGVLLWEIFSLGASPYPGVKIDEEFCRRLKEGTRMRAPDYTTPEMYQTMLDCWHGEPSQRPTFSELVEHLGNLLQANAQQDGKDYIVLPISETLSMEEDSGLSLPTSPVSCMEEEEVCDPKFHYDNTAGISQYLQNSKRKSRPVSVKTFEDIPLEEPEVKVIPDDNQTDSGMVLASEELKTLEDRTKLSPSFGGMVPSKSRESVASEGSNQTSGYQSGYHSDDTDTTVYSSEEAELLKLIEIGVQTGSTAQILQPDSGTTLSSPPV

Compound `COc1ccc(-c2cc(-c3ccc(Cl)cc3)nc(SC)n2)cc1` [Compound 9, 4-(4-Chlorophenyl)-6-(4-methoxyphenyl)-2-(methylthio)pyrimidine] has an IC50 [1] of 0.062 µM and a viability at 4 days, 50 µM [2] of 91%.
Work on `CCSc1nc(-c2ccc(Cl)cc2)cc(-c2ccc(OC)cc2)n1` [Compound 10, 4-(4-Chlorophenyl)-2-(ethylthio)-6-(4-methoxyphenyl)pyrimidine] yielded an IC50 [1] of 0.076 µM and a viability at 4 days, 50 µM [2] of 90%.
Work on `CCCSc1nc(-c2ccc(Cl)cc2)cc(-c2ccc(OC)cc2)n1` [Compound 11, 4-(4-Chlorophenyl)-6-(4-methoxyphenyl)-2-(propylthio)pyrimidine] yielded an IC50 [1] of 0.054 µM and a viability at 4 days, 50 µM [2] of 89%.
`COc1ccc(-c2cc(-c3ccc(Cl)cc3)nc(SC(C)C)n2)cc1` [Compound 12, 4-(4-Chlorophenyl)-2-(isopropylthio)-6-(4-methoxyphenyl)pyrimidine] showed an IC50 [1] of 0.036 µM and a viability at 4 days, 50 µM [2] of 89%.
Compound `C=CCSc1nc(-c2ccc(Cl)cc2)cc(-c2ccc(OC)cc2)n1` [Compound 13, 2-(Allylthio)-4-(4-chlorophenyl)-6-(4-methoxyphenyl)pyrimidine] has an IC50 [1] of 0.066 µM and a viability at 4 days, 50 µM [2] of 90%.
For `COc1ccc(CSc2nc(-c3ccc(Cl)cc3)cc(-c3ccc(OC)cc3)n2)cc1` [Compound 15, 2-(4-Methoxybenzylthio)-4-(4-chlorophenyl)-6-(4-methoxyphenyl)pyrimidine], the IC50 [1] was 0.08 µM and the viability at 4 days, 50 µM [2] was 91%.
Work on `COc1ccc(-c2cc(-c3cccc(OC)c3)nc(SC)n2)cc1` [Compound 16, 6-(3-Methoxyphenyl)-4-(4-methoxyphenyl)-2-(methylthio)pyrimidine] yielded an IC50 [1] of 0.086 µM and a viability at 4 days, 50 µM [2] of 92%.
`CCSc1nc(-c2ccc(OC)cc2)cc(-c2cccc(OC)c2)n1` [Compound 17, 2-(Ethylthio)-6-(3-methoxyphenyl)-4-(4-methoxyphenyl)pyrimidine] showed an IC50 [1] of 0.029 µM, an IC50 (VEGFR-2) of 0.00185 ± 1e-05 µM and an IC50 (EGFR) of 0.087 ± 0.006 µM. It also gave a viability at 4 days, 50 µM [2] of 90%.
With `CCCSc1nc(-c2ccc(OC)cc2)cc(-c2cccc(OC)c2)n1` [Compound 18, 6-(3-Methoxyphenyl)-4-(4-methoxyphenyl)-2-(propylthio)pyrimidine] the IC50 [1] was 0.045 µM and the viability at 4 days, 50 µM [2] was 87%.
With `C=CCSc1nc(-c2ccc(OC)cc2)cc(-c2cccc(OC)c2)n1` [Compound 20, 2-(Allylthio)-6-(3-methoxyphenyl)-4-(4-methoxyphenyl)pyrimidine] the IC50 [1] was 0.071 µM and the viability at 4 days, 50 µM [2] was 90%.
For `COc1ccc(CSc2nc(-c3ccc(OC)cc3)cc(-c3cccc(OC)c3)n2)cc1` [Compound 22, 2-(4-Methoxybenzylthio)-6-(3-methoxyphenyl)-4-(4-methoxyphenyl)pyrimidine], the IC50 [1] was 0.022 µM, the IC50 (VEGFR-2) was 0.00115 ± 1e-05 µM and the “Experimental lipophilicity RMo” value [3] was 6.449 ± 0.05873 and 6.24. The “Experimental lipophilicity Co” value [3] was 90.6598 and 87.7 and the viability at 4 days, 50 µM [2] was 89%.
For `COc1ccc(-c2cc(-c3ccc(Cl)cc3)nc(SC)n2)cc1OC` [Compound 23, 4-(4-Chlorophenyl)-6-(3,4-dimethoxyphenyl)-2-(methylthio)pyrimidine], the IC50 [1] was 0.048 µM and the viability at 4 days, 50 µM [2] was 90%.
Compound `CCSc1nc(-c2ccc(Cl)cc2)cc(-c2ccc(OC)c(OC)c2)n1` [Compound 24, 4-(4-Chlorophenyl)-2-(ethylthio)-6-(3,4-dimethoxyphenyl)pyrimidine] has an IC50 [1] of 0.031 µM and a viability at 4 days, 50 µM [2] of 91%.
Compound `CCCSc1nc(-c2ccc(Cl)cc2)cc(-c2ccc(OC)c(OC)c2)n1` [Compound 25, 4-(4-Chlorophenyl)-6-(3,4-dimethoxyphenyl)-2-(propylthio)pyrimidine] has an IC50 [1] of 0.033 µM, an IC50 (VEGFR-2) of 0.00295 ± 2e-05 µM and an IC50 (EGFR) of 0.078 ± 0.005 µM. It also gave a viability at 4 days, 50 µM [2] of 91%.
For `COc1ccc(-c2cc(-c3ccc(Cl)cc3)nc(SC(C)C)n2)cc1OC` [Compound 26, 4-(4-Chlorophenyl)-2-(isopropylthio)-6-(3,4-dimethoxyphenyl)pyrimidine], the “Wound Width ±SD 0 h” value [4] was 1.01±0.02 mm, the “Wound Width ±SD 24 h” value [4] was 0.76±0.04 mm and the “Wound closure % 24 h” value [4] was 25%. For the same compound, the “Wound Width ±SD 48 h” value [4] was 0.51±0.03 mm, the “Wound closure % 48 h” value [4] was 49.7% and the “Wound Width ±SD 72 h” value [4] was 0 mm. The “Wound closure % 72 h” value [4] was 100%, the Migration rate [4] was 0.013 and the IC50 [1] was 0.041 µM. The “Experimental lipophilicity RMo” value [3] was 6.45, the “Experimental lipophilicity Co” value [3] was 86.518 and 90.64 and the viability at 4 days, 50 µM [2] was 90%.
In the case of `C=CCSc1nc(-c2ccc(Cl)cc2)cc(-c2ccc(OC)c(OC)c2)n1` [Compound 27, 2-(Allylthio)-4-(4-chlorophenyl)-6-(3,4-dimethoxyphenyl)pyrimidine], the “Wound Width ±SD 0 h” value [4] is reported as 1±0.02 mm, the “Wound Width ±SD 24 h” value [4] is reported as 0.88±0.03 mm and the “Wound closure % 24 h” value [4] is reported as 11.3%. For the same compound, the “Wound Width ±SD 48 h” value [4] was 0.66±0.03 mm, the “Wound closure % 48 h” value [4] was 34% and the “Wound Width ±SD 72 h” value [4] was 0.2±0.18 mm. The “Wound closure % 72 h” value [4] was 80%, the Migration rate [4] was 0.011 and the IC50 [1] was 0.059 µM. For the same compound, the “Experimental lipophilicity RMo” value [3] was 5.79, the “Experimental lipophilicity Co” value [3] was 87.9561 and 86.52 and the viability at 4 days, 50 µM [2] was 89%.
For `COc1ccc(-c2cc(-c3ccc(Cl)cc3)nc(SCc3ccccc3)n2)cc1OC` [Compound 28, 2-(Benzylthio)-4-(4-chlorophenyl)-6-(3,4-dimethoxyphenyl)pyrimidine], the IC50 [1] was 0.041 µM, the “Experimental lipophilicity RMo” value [3] was 5.32 and the “Experimental lipophilicity Co” value [3] was 91.4199 and 87.18. The viability at 4 days, 50 µM [2] was 92%.
Work on `COc1ccc(CSc2nc(-c3ccc(Cl)cc3)cc(-c3ccc(OC)c(OC)c3)n2)cc1` [Compound 29, 2-(4-Methoxybenzylthio)-4-(4-chlorophenyl)-6-(3,4-dimethoxyphenyl)pyrimidine] yielded an IC50 [1] of 0.024 µM, an IC50 (VEGFR-2) of 0.0016 ± 1e-05 µM and an IC50 (EGFR) of 0.072 ± 0.005 µM. The viability at 4 days, 50 µM [2] was 91%.
